Here are results for seven compounds from patent US6936622B2, “6-phenylbenzonaphthyridines” (Altana Pharma AG, priority 2001, dated 2005).

Structures are written as SMILES. Structures can show the parent of a compound that is named as a salt.

The target in one data set is T1, PDE3 (cGMP-inhibited) (Homo sapiens, UniProt Q14432).
T1 construct: investigated in homogenates of human platelets; from tissue; host or cells: homogenates of human platelets
Kind of data set: Inhibition of PDE isoenzymes: PDE3. It is filed as biochemical. The settings on record: homogenates of human platelets, cAMP or cGMP as substrate; read-out: PDE3 [-log IC50, mol/l] (converted). The protocol:
(§1) 1. Inhibition of PDE Isoenzymes
(§2) The PDE activity was determined according to Thompson et al. (Adv Cycl Nucl Res 10: 69-92, 1979) with some modifications (Bauer and Schwabe, Naunyn-Schmiedeberg's Arch Pharmacol 311: 193198, 1980). The test samples contained 20 mM Tris (pH 7.4), 5 mM MgCl2, 0.5 μM cAMP or cGMP, [^3H]cAMP or [^3H]cGMP (about 30 000 cpm/sample), the PDE isoenzyme-specific additives described in greater detail below, the indicated concentrations of inhibitor and an aliquot of the enzyme solution in a total sample volume of 200 μl. Dilution series of the compounds according to the invention were prepared in DMSO and further diluted in the samples [1:100 (v/v)], to give the desired end concentration of the inhibitors at a DMSO concentration of 1% (v/v), which for its part has only a minute effect on PDE activity.
(§3) After preincubation at 37° C. for 5 minutes, the reaction was started by addition of the substrate (cAMP or cGMP). The samples were incubated at 37° C. for a further 15 min. The reaction was terminated by addition of 50 μl 0.2 N HCl. After cooling on ice for 10 minutes and addition of 25 μg 5′-nucleotidase (snake venom from Crotalus atrox), the mixture was again incubated at 37° C. for 10 min and the samples were then applied to QAE Sephadex A-25 columns (sample volume 1 ml). The columns were eluted with 2 ml of 30 mM ammonium formate (pH 6.0). The radioactivity of the eluate was measured and corrected by the corresponding blank values (measured in the presence of denatured protein); the blank values were less than 5% of the total radioactivity. In no case did the proportion of hydrolyzed nucleotide exceed 30% of the original substrate concentration.
PDE3 (cGMP-inhibited) was investigated in homogenates of human platelets (see Schudt et al., Biochem Pharmacol 1991: 42, 153-162) using cAMP or cGMP as substrate.
(§4) The IC50 values were determined from the concentration-inhibition curves by nonlinear regression.

Another data set has as its target PDE4 (cAMP-specific). Nature of the data set: Inhibition of PDE isoenzymes: PDE4. It is filed as biochemical. The conditions noted are these: cytosol of human polymorphonuclear leukocytes (PMNL), cAMP as substrate, motapizone 1 μM. The protocol:
as §1, §2, §3
PDE4 (cAMP-specific) was investigated in the cytosol of human polymorphonuclear leukocytes (PMNL) [isolated from leukocyte concentrates, see Schudt et al., Arch Pharmacol 1991: 344, 682-690] using cAMP as substrate. The PDE3 inhibitor motapizone (1 μM) was used to suppress the PDE3 activity emanating from contaminated platelets.
as §4

T1 sequence (Q14432 whole entry): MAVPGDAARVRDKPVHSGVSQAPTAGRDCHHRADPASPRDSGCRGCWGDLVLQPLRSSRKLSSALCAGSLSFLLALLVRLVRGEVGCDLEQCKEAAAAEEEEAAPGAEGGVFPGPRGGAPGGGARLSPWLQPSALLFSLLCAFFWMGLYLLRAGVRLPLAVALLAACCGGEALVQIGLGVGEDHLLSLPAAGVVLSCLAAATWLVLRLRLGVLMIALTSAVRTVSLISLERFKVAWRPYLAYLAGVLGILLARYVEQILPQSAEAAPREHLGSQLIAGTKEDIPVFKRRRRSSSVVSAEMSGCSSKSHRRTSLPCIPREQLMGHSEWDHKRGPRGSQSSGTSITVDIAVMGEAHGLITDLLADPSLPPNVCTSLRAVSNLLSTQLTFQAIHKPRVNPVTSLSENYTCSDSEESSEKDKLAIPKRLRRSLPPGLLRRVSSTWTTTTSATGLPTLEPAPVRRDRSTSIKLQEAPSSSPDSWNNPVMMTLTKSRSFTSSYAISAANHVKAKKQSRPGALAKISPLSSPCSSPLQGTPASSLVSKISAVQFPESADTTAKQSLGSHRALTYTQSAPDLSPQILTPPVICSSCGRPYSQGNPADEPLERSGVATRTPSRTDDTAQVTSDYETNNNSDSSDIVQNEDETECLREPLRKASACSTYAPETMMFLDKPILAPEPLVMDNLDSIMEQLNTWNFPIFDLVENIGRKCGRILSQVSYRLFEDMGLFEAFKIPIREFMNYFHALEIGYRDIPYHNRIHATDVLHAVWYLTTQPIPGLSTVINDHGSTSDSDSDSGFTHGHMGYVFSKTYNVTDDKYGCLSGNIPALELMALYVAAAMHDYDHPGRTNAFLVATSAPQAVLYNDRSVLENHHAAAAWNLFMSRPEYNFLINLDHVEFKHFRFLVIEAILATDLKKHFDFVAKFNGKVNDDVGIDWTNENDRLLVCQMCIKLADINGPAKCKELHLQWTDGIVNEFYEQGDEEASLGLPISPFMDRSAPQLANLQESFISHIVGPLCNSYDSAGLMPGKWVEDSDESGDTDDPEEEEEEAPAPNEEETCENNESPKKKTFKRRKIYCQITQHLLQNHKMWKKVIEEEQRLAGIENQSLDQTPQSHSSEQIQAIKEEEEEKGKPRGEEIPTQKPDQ

One may read the melting point as the temperature, or range, at which the solid turns liquid. `CCOc1cc2c(cc1OC)C(c1cccc(C(=O)NC(=N)N(C)C)c1)=NC1CCN(C)CC21` (stereo not drawn) [Compound 10, N′-{1-[3-(cis)-9-Ethoxy-8-methoxy-2-methyl-1,2,3,4,4a,10b-hexahydro-benzo[c][c][1,6]naphthyridin-6-yl)-phenyl]-methanoyl}-N,N-dimethyl-guanidine] yielded a melting point of 186 to 188 °C. Further, at PDE3 (cGMP-inhibited), the IC50 was 891 nM. Moreover, the “PDE4 [-log IC50, mol/l]” value at PDE4 (cAMP-specific) is given as 8.15.

`CCOc1cc2c(cc1OC)C(c1ccc(C(=O)NC(=NC)N(C)C)cc1)=N[C@H]1CCN(C)C[C@@H]21.Cl` (relative stereo) [Compound 13, N′-{1-[4-((cis)-9-Ethoxy-8-methoxy-2-methyl-1,2,3,4,4a,10b-hexahydro-benzo[c][1,6]naphthyridin-6-yl)-phenyl]-methanoyl}-N,N,N″-trimethyl-guanidine hydrochloride]: the melting point lay within 143 to 150 °C. Besides, at PDE3 (cGMP-inhibited), the IC50 was 91.2 nM. Also, on PDE4 (cAMP-specific), the “PDE4 [-log IC50, mol/l]” value stood at 9.34.

On to `CCOc1cc2c(cc1OC)C(c1ccc(C(=O)NC(=N)N3CCCC3)cc1)=N[C@H]1CCN(C)C[C@@H]21` (relative stereo) [Compound 11, 4-((cis)-9-Ethoxy-8-methoxy-2-methyl-1,2,3,4,4a,10b-hexahydro-benzo[c][1,6]naphthyridin-6-yl)-N-(1-imino-1-pyrrolidin-1-yl-methyl)-benzamide], for which the melting point lay in the range of 145 to 152 °C. Moreover, on PDE3 (cGMP-inhibited), the IC50 was 550 nM. Besides, on PDE4 (cAMP-specific), the “PDE4 [-log IC50, mol/l]” value was 8.41.

In turn, `CCOc1cc2c(cc1OC)C(c1ccc(C(=O)N=C(N)N3CCN(C)CC3)cc1)=NC1CCN(C)CC21` (stereo not drawn) (as salt: hydrochloride) [Compound 6, N-[1-Amino-1-(4-methylpiperazin-1-yl)methylene]-4-((+)-cis-9-ethoxy-8-methoxy-2-methyl-1,2,3,4,4a,10b-hexahydro[c][1,6]naphthyridin-6-yl)benzamide dihydrochloride] showed a melting point of 209 to 215 °C.

`CCOc1cc2c(cc1OC)C(c1ccc(C(=O)NC(=N)N(C)C)cc1)=NC1CC[N+](C)([O-])CC21` (single isomer, unassigned) [Compound 22, N′-{1-[4-((−)-cis-9-Ethoxy-8-methoxy-2-methyl-2-oxy-1,2,3,4,4a,10b-hexahydro-benzo[c][1,6]naphthyridin-6-yl)-phenyl]-methanoyl}-N,N-dimethyl-guanidine] had a melting point of 220 to 224 °C. The IC50 at PDE3 (cGMP-inhibited) is 676 nM. Also, the “PDE4 [-log IC50, mol/l]” value at PDE4 (cAMP-specific) came out at 7.71.

Consider `CCOc1cc2c(cc1OC)C(c1ccc(C(=O)NC(=N)N(CC)CC)cc1)=NC1CCN(C)CC21` (stereo not drawn) (as salt: hydrochloride) [Compound 2, N′-{1-[4-((+)-cis-9-Ethoxy-8-methoxy-2-methyl-1,2,3,4,4a,10b-hexahydro[c][1,6]naphthyridin-6-yl)phenyl]methanoyl}-N,N-diethylguanidine dihydrochloride], for which the melting point lay within 194 to 203 °C.

In turn, `CCOc1cc2c(cc1OC)C(c1ccc(C(=O)NC(=N)N(C)CCO)cc1)=NC1CCN(C)CC21` (stereo not drawn) (as salt: hydrochloride) [Compound 4, N′-{1-[4-((+)-cis-9-Ethoxy-8-methoxy-2-methyl-1,2,3,4,4a,10b-hexahydro[c][1,6]naphthyridin-6-yl)phenyl]methanoyl}-N-(2-hydroxyethyl)-N-methylguanidine dihydrochloride] displayed a melting point of 172 to 179 °C.
